Legend:
STAT3 [1] = experiment: IL-6-inducible STAT3 phosphorylation in RPMI 8226 cells, Western blot; assay type: cell-based, human
Experimental: (§1) Western blot. For detection of STAT proteins, whole-cell extracts were prepared by lysing the guggulsterone-treated cells in lysis buffer (20 mM Tris, pH 7.4, 250 mM NaCl, 2 mM EDTA, pH 8.0, 0.1% Triton −X100, 0.01 mg/ml aprotinin, 0.005 mg/ml leupeptin, 0.4 mM PMSF, and 4 mM NaVO4). Lysates were then spun at 14,000 rpm for 10 min to remove insoluble material, and resolved on a 7.5% gel. After electrophoresis, the proteins were electrotransferred to a nitrocellulose membrane, blocked with 5% nonfat milk, and probed with anti-STAT antibodies (1:1000) overnight at 4° C. The blot was washed, exposed to HRP-conjugated secondary antibodies for 1 h, and finally examined by chemiluminescence (ECL, Amersham Pharmacia Biotech. Arlington Heights, Ill.).

[2] = tested on: MKK4 mutants and wild type cells; experiment: Cytotoxicity (MTT uptake) in MKK4 mutants and wild type cells; assay type: cell-based; conditions: 72 h
Experimental: Cytotoxicity assay. The cytotoxic effects of guggulsterone was determined by the MTT uptake method. Briefly, 5000 cells were incubated with guggulsterone in triplicate in a 96-well plate at 37° C. MTT solution was then added to each well. After a 2-h incubation at 37° C., extraction buffer (20% SDS, 50% dimethylformamide) was added, the cells were incubated overnight at 37° C., and the OD was then measured at 570 nm using a 96-well multiscanner (Dynex Technologies, MRX Revelation, Chantilly, Va.).

Akt [3] = experiment: Akt activation in U937 cells, Western blot; assay type: cell-based, human; conditions: 10 μM
Experimental: (§2) Western blot analysis. Thirty to fifty micrograms of cytoplasmic, nuclear or whole cell protein was resolved on 10% SDS-PAGE gel, transferred to a nitrocellulose membrane, blocked with 5% non-fat milk, and probed with specific antibodies as per manufacturer's recommended protocol. The blots were washed, exposed to HRP-conjugated secondary antibodies for 1 h, and detected by ECL reagent (Amersham Pharmacia Biotechnology, Piscataway, N.J.). The bands were quantitated using a Personal Densitometer Scan v1.30 using Imagequant software version 3.3 (Molecular Dynamics).

STAT3 [4] = experiment: Constitutive STAT3 phosphorylation in U266 cells, Western blot; assay type: cell-based, human
Experimental: as §1

Akt [5] = experiment: TNF-induced Akt activation, Western blot with phospho-specific anti-Akt; assay type: cell-based; conditions: pretreatment with guggulsterone, TNF (1 nM)
Source text: Guggulsterone Suppressed TNF-induced Activation of Akt: The results till now indicate that guggulsterone inhibits TNF-induced NF-κB activation through inhibition of IKK activation. It is possible that this inhibition is due to inhibition of an upstream kinase. Previous studies have reported that Akt can activate IKK. Thus it is possible that guggulsterone suppresses TNF-induced Akt activation. To determine the effect of guggulsterone on the activation of Akt induced by TNF, the cells were treated with guggulsterone, and then exposed to TNF (1 nM) for different times. Thereafter whole-cell extracts were prepared and Western blot analysis using phospho-specific anti-Akt antibody was performed.

RAW 264.7 cells = experiment: Tumor cell (MDA-MB-468, U266) co-incubation-induced osteoclastogenesis; assay type: cell-based, mouse; conditions: RAW 264.7 co-incubation, GS 5 μM
[6] = tested on: cyclin D1, cdc2, p21, p27, GADD45β, xIAP, Bfl-1/A1, Bcl-2, BclX1, cFLIP, survivin, c-myc, COX2; experiment: Western blot of cell cycle, anti-apoptotic, proliferative and metastatic gene products in U937 cells; assay type: cell-based, human; conditions: 10 μM
Experimental: as §2

[7] = humans; cited from earlier work
NF-κB = NF-κB activation by EMSA in H1299 cells; assay type: cell-based, human
Experimental: NF-κB Activation: To determine NF-κB activation, EMSA was carried out as previously described (Chaturvedi et al., 2000). Briefly, nuclear extracts prepared from cells (2×10^6/ml) treated with TNF were incubated with ^32P-end-labeled 45-mer double-stranded NF-κB oligonucleotide (8 μg of protein with […] of DNA) from the human immunodeficiency virus long terminal repeat, 5′-[…] GGCGTGG-3′ (SEQ ID NO:1) (boldface indicates NF-κB binding sites), for 15 min at 37° C. The DNA-protein complex formed was separated from free oligonucleotide on 6.6% native polyacrylamide gels. A double-stranded mutated oligonucleotide, 5′-[…]-3′ (SEQ ID NO:2), was used to examine the specificity of binding of NF-κB to the DNA. The specificity of binding was also examined by competition with the unlabeled oligonucleotide. For supershift assays, nuclear extracts prepared from TNF-treated cells were incubated with antibodies against either the p50 or the p65 subunit of NF-κB for 30 min at room temperature before the complex was analyzed by EMSA. The dried gels were visualized, and radioactive bands were quantitated using a PHOSPHORIMAGER™ (Molecular Dynamics, Sunnyvale, Calif.) using IMAGEQUANT™ software.

KBM-5 cells = experiment: Cytotoxicity (MTT) assay with TNF and chemotherapeutic drugs; assay type: cell-based, human; conditions: 50 μM guggulsterone, 72 hours
Experimental: Cytotoxicity Assay: Cytotoxicity was assayed by the modified tetrazolium salt 3-(4-5-dimethylthiozol-2-yl)2-5-diphenyl-tetrazolium bromide (MTT) assay (Bharti et al., 2003). Briefly, cells (5000 cells/well) were incubated in the presence or absence of the indicated test sample in a final volume of 0.1 ml for 72 hours at 37° C. Thereafter, 0.025 ml of MTT solution (5 mg/ml in PBS) was added to each well. After a 2 hour incubation at 37° C., 0.1 ml of the extraction buffer (20% SDS, 50% dimethylformamide) was added. After an overnight incubation at 37° C., the optical densities at 570 nm were measured using a 96-well multiscanner autoreader (Dynatech MR5000), with the extraction buffer as blank. The percent cytotoxicity was determined as follows: (1−(A570 of test sample)/(A570 of control sample)×100%.

bile salt export pump = conditions: Cui et al., 2003; cited from earlier work
[8] = H1299, 4 h pre-incubation, 0.1 nM TNF 30 min

CC=C1C(=O)C[C@H]2[C@@H]3CCC4=CC(=O)CC[C@]4(C)[C@H]3CC[C@]12C [guggulsterone, 4,17(20)-pregnadiene-3,16-dione]
exposure time sufficient to completely suppress IL-6-induced STAT3 phosphorylation (STAT3 [1]; 25 μM): 4 h | IL-6-induced STAT3 phosphorylation (STAT3 [1]; 25 μM, IL-6 10 ng/ml 10 min): blocked by guggulsterone in a time-dependent manner | STAT3 phosphorylation by guggulsterone alone (STAT3 [1]; data not shown): had no effect on STAT3 phosphorylation | guggulsterone induced cytotoxicity, dependence on MKK4 [2]: MKK4 is required for guggulsterone induced cytotoxicity | Akt activation (Akt [3]): suppression of Akt-activation | overall expression of STAT3 protein (STAT3 [4]): did not alter the overall expression of STAT3 protein | earliest time at which inhibition of constitutive STAT3 phosphorylation is observed (STAT3 [4]; 25 μM): 4 h | lowest concentration at which inhibition of constitutive STAT3 phosphorylation is observed (STAT3 [4]; 4 h): 25 µM | constitutively active (phosphorylated) STAT3 (STAT3 [4]; time- and dose-dependent): inhibited the constitutively active STAT3 | TNF-induced Akt activation (Akt [5]): completely suppressed the activation | osteoclast differentiation induced by co-incubation of U266 cells with macrophages (RAW 264.7 cells): induced osteoclast differentiation was suppressed | MDA-MB-468 cells-induced and U266 cells-induced osteoclast differentiation (RAW 264.7 cells; 5 days): suppressed osteoclastogenesis | gene products involved in antiapoptosis (xIAP, Bfl-1/A1, Bcl-2, BclX1, cFLIP, survivin), proliferation (c-myc) and metastasis (COX2) [6]: inhibited the gene products involved in antiapoptosis | levels of cyclin D1 and cdc2 [6]: decrease in the levels of cyclin D1 and cdc2 | levels of p21, p27 and GADD45β [6]: increase in the levels of cyclin dependent kinase inhibitor p21, p27 | pharmacological safety [7]: pharmacologically safe agent in humans | minimum time required for complete inhibition of NF-κB activation (NF-κB; H1299, 50 μM guggulsterone, 0.1 nM TNF 30 min): 4 h | TNF-mediated NF-κB activation, dose dependence (NF-κB; [8]): inhibited TNF-mediated NF-κB activation in a dose-dependent manner | concentration of maximum inhibition of TNF-mediated NF-κB activation (NF-κB; [8]): 50 µM | NF-κB activation induced by TNF, IL-1β, PMA, H2O2, cigarette smoke and okadaic acid (EMSA) (NF-κB; H1299 cells, 50 μM guggulsterone pre-incubated 4 h): suppressed the NF-κB activation induced by all these agents | NF-κB activation by guggulsterone by itself (NF-κB; H1299 nuclear extracts, up to 50 μM): by itself did not activate NF-κB | cytotoxic effects of TNF, paclitaxel and doxorubicin in combination with guggulsterone (KBM-5 cells): enhanced the cytotoxic effects of TNF, paclitaxel and doxorubicin | transcription of the bile salt export pump (bile salt export pump): enhances transcription of the bile salt export pump

— patent US20060019907A1, “Guggulsterone: an inhibitor of nuclear factor - kappaB and IkappaBalpha kinase activation and uses thereof” (Research Development Foundation, priority 2004, published 2006)
